Activity calls are given as the source filed them. The rule behind the calls is not given here.
Experiments:
Canis lupus familiaris [1] = organism: Canis lupus familiaris; assay: Binding affinity to hound bone powder assessed as reduction in bound compound level at 50 uM after 16 hrs by NMR spectroscopic analysis relative to alendronate; design: scale not given: the % may be the effect or the level left
Canis lupus familiaris [2] = organism: Canis lupus familiaris; assay: Binding affinity to hound bone powder assessed as reduction in bound compound level at 50 uM after 1 hr by NMR spectroscopic analysis relative to control; design: scale not given: the % may be the effect or the level left
[3] = Binding affinity to synthetic ceramic hydroxyapatite type 1 assessed as reduction in bound compound level at 50 uM after 1 hr by NMR spectroscopic analysis relative to control; design: scale not given: the % may be the effect or the level left
Canis lupus familiaris [4] = organism: Canis lupus familiaris; assay: Binding affinity to hound bone powder assessed as reduction in bound compound level at 50 uM after 16 hrs by NMR spectroscopic analysis relative to control; design: scale not given: the % may be the effect or the level left
Estrogen receptor = molecular target: T1, Estrogen receptor (Homo sapiens, UniProt P03372); assay: Binding affinity to ERalpha (unknown origin)
T1 sequence (P03372 whole entry): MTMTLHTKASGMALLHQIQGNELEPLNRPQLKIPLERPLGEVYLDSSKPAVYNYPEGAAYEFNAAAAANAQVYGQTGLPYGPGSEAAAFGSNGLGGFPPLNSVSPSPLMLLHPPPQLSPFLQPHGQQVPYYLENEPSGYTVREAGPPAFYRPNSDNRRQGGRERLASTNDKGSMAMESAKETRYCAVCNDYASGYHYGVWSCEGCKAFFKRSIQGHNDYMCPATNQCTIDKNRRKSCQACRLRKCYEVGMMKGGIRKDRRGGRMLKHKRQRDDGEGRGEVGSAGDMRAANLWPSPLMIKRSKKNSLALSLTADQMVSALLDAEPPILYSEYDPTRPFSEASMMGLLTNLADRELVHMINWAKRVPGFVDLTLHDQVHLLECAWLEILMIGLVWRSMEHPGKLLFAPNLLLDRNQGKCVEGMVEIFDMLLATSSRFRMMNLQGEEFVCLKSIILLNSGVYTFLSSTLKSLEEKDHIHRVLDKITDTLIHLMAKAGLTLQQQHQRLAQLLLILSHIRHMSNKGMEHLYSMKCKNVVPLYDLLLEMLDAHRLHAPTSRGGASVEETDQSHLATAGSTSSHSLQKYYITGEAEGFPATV

[5] = Binding affinity to synthetic ceramic hydroxyapatite type 1 assessed as reduction in bound compound level at 50 uM after 16 hrs by NMR spectroscopic analysis relative to alendronate; design: scale not given: the % may be the effect or the level left
[6] = Binding affinity to synthetic ceramic hydroxyapatite type 1 assessed as reduction in bound compound level at 50 uM after 1 hr by NMR spectroscopic analysis relative to alendronate; design: scale not given: the % may be the effect or the level left
Canis lupus familiaris [7] = organism: Canis lupus familiaris; assay: Binding affinity to hound bone powder assessed as reduction in bound compound level at 50 uM after 1 hr by NMR spectroscopic analysis relative to alendronate; design: scale not given: the % may be the effect or the level left
[8] = Binding affinity to synthetic ceramic hydroxyapatite type 1 assessed as reduction in bound compound level at 50 uM after 16 hrs by NMR spectroscopic analysis relative to control; design: scale not given: the % may be the effect or the level left
Estrogen receptor beta = Estrogen receptor beta (Homo sapiens, UniProt Q92731); assay: Binding affinity to ERbeta (unknown origin)
Chain of Estrogen receptor beta (Q92731 whole entry): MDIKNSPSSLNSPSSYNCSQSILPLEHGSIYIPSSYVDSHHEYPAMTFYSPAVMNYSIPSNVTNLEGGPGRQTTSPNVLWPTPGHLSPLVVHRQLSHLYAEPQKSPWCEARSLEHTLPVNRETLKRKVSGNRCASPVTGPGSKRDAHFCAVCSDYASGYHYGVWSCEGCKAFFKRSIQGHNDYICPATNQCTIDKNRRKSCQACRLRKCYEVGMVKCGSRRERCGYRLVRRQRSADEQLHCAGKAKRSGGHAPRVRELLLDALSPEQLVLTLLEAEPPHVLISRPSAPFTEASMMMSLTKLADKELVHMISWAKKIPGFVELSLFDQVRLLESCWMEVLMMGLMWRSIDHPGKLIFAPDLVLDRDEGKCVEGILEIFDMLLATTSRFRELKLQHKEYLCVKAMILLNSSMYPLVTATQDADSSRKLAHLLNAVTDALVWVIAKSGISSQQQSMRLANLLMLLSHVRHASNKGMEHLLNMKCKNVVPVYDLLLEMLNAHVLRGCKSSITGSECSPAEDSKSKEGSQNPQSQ

Canis lupus familiaris [9] = organism: Canis lupus familiaris; assay: […] hound bone beams assessed as energy to fracture at 2 uM by 4 point bending analysis relative to control
Canis lupus familiaris [10] = organism: Canis lupus familiaris; assay: Binding affinity to hound bone powder at 50 uM after 1 to 8 hrs by 1H NMR spectroscopic analysis
[11] = molecular target: Collagen alpha-1(I) chain (Canis lupus familiaris) (UniProt Q9XSJ7); assay: Binding affinity to hound collagen 1a1 (unknown origin) at 50 uM after 1 8 hrs by 1H NMR spectroscopic analysis
Chain of Collagen alpha-1(I) chain (Canis lupus familiaris) (Q9XSJ7 whole entry): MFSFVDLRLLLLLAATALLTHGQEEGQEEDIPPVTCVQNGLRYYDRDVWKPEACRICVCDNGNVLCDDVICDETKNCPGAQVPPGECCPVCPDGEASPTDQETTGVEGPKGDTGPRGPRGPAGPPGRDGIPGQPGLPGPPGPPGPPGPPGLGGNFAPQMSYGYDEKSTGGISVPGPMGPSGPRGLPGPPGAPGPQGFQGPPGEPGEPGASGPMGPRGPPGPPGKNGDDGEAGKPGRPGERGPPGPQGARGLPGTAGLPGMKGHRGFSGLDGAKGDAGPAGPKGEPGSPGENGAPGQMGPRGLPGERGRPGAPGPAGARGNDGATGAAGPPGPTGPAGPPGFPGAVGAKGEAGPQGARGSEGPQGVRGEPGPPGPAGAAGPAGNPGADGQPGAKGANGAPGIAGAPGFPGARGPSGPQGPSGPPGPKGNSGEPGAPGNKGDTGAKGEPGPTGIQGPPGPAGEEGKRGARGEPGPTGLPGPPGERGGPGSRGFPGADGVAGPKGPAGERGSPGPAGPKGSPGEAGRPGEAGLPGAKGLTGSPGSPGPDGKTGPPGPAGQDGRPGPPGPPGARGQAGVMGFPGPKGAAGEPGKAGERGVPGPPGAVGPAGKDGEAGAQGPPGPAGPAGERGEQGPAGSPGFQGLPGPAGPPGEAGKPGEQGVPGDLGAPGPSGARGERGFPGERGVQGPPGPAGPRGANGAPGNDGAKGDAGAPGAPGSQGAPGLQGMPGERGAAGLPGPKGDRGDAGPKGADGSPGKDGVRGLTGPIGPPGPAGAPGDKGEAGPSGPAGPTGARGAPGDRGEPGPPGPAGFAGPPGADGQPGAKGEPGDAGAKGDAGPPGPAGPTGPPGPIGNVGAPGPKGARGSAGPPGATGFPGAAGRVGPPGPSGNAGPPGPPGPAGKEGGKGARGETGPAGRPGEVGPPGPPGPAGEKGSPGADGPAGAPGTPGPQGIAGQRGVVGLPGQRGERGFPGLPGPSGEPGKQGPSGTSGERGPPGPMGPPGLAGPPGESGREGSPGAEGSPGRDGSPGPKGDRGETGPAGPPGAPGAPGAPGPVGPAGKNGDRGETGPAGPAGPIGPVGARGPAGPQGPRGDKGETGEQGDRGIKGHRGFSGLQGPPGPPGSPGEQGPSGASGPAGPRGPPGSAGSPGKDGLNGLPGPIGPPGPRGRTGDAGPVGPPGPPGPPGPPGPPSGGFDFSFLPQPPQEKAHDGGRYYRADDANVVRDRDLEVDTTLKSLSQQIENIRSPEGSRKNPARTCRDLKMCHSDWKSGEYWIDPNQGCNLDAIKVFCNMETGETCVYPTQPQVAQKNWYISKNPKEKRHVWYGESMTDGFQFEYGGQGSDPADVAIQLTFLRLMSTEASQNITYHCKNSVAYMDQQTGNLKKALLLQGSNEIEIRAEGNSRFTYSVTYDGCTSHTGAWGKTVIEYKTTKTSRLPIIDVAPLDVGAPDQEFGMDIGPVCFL

Canis lupus familiaris [12] = organism: Canis lupus familiaris; assay: Binding affinity to hound bone powder assessed as change in vibration bands at 20 to 50 uM after 1 hr by FTIR analysis

Row | Activity (Canis lupus familiaris [1]) [%] | Activity (Canis lupus familiaris [2]) [%] | Activity [3] [%] | Activity (Canis lupus familiaris [4]) [%] | Ki (Estrogen receptor) [µM] | Activity [5] [%] | Activity [6] [%] | Activity (Canis lupus familiaris [7]) [%] | Activity [8] [%] | Ki (Estrogen receptor beta) [µM] | Activity (Canis lupus familiaris [9]) [%] | Activity (Canis lupus familiaris [10]) | Activity [11] | Activity (Canis lupus familiaris [12]) | SMILES
1 | 93.1 | -132 | -422 | 89 | > 10 | -238 | -422 | -132 | -237 | > 10 | – | – | – | – | O=C(c1ccc(OCCN2CCCCC2)cc1)c1c(-c2ccccc2)sc2ccccc12
2 | 77.4 | 21 | -57.9 | 73.9 | – | -287 | -57.9 | 21 | -286 | – | 25 | Active | Active | – | COc1ccc2c(C(=O)c3ccc(OCCN4CCCCC4)cc3)c(-c3ccc(O)cc3)sc2c1
3 | 48.6 | 42.8 | 22.3 | 46.4 | – | 11.7 | 22.3 | 42.8 | 11.7 | 0.0023 | -75 | – | – | – | Oc1ccc(-c2cc3ccc(O)cc3s2)cc1 [RALOXIFENE CORE]
4 | 77.4 | 5.3 | 57.1 | 73.9 | – | 73.2 | 57.1 | 5.3 | 73 | – | – | – | – | – | C[C@]12CC[C@@H]3c4ccc(O)cc4CC[C@H]3[C@@H]1CC[C@@H]2O
5 | 35.6 | 26.4 | 13.3 | 34.1 | – | 15.1 | 13.3 | 26.4 | 15.1 | – | -36 | Active | Active | – | O=C(c1ccc(O)cc1)c1c(-c2ccc(O)cc2)sc2cc(O)ccc12
6 | -0.5 | 0.3 | 3.9 | -0.5 | – | 4.1 | 3.9 | 0.3 | 4.1 | – | – | – | – | – | COc1ccc(Nc2nc(NCc3ccco3)nc(N/N=C(\C)c3ccc(NC(C)=O)cc3)n2)cc1
7 | 104 | 54.2 | -232 | 99 | – | -207 | -232 | 54.2 | -206 | – | 16 | Active | Active | Active | O=C(c1ccc(OCCN2CCCCC2)cc1)c1c(-c2ccc(O)cc2)sc2cc(O)ccc12
8 | – | 41.1 | 100 | 95.6 | – | – | – | – | 99.7 | – | – | – | – | – | NCCCC(O)(P(=O)(O)O)P(=O)(O)O

Source: ChEMBL document CHEMBL3751680 (Bioorg Med Chem, 2016)
